Source: patent publication US20250197357A1, “PPARG INVERSE AGONISTS AND USES THEREOF” (Flare Therapeutics Inc., priority 2022, published 2025)

Experiments:
[1] = molecular target: T1, PPARG/RXRA LBD heterodimer (Homo sapiens, UniProt P37231); test: PPARγ-NCOR1 recruitment assay (TR-FRET); type: binding; details: NCOR1 ID2 peptide, 80 nM Rosiglitazone, 3 hours, read-out: PPARG - NCOR recruitment assay EC50
T1 construct: 2 nM WT PPARG LBD (e. coli expressed, His-TEV-Q203-Y477); fused on or other part: N-terminal His tag with TEV site on the PPARG LBD
Procedure: Compound potency (EC50) and maximal extent of NCOR1 recruitment to PPARG were assessed a TR-FRET binding assay measuring association of a biotinylated NCOR1 ID2 peptide (Biotin-[…]-amide) to PPARG/RXRA LBD heterodimer. Specifically, a 20 microliters of TR-FRET master mix consisting of 2 nM WT PPARG LBD (e. coli expressed, His-TEV-Q203-Y477; Uniprot ID P37231-2), 2 nM WT RXRA LBD or mutant S427F RXRA LBD (e. coli expressed, Flag-TEV-E228-T462; […]. Mixtures were incubated for 3 hours and read in an EnVision plate reader (Perkin Elmer) with Ex/Em 615/665. To determine the potency (EC50) and extent of NCOR1 recruitment, TR-FRET ratios were normalized to the average ratio of DMSO control wells (0%) and to the average maximum ratio for positive control compound (T0070907 (2-chloro-5-nitro-N-4-pyridinyl-benzamide); defined as 100%) in CDD Vault and analyzed using the Levenberg-Marquardt algorithm.
T1 sequence (O75376 2251-2273 limits assumed, one chain of several, further chain): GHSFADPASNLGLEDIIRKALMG

[2] = system: ANGPTL4, a PPARG target gene, in HT1197 (RXRA S427F mutation) cells; test: Bladder cancer pharmacodynamic assay (HT1197 cell assay, qPCR of PPARG target genes); type: cell-based; details: Homo sapiens; for inhibition at 0.1 µM: 100 nM compound, 24 hours, relative to DMSO control; for EC50: 24 hours treatment, qPCR
Procedure: 5637 (PPARG amplified) and HT1197 (RXRA S427F mutation) cells were used for assessment of modulation of PPARG target genes using quantitative PCR. Cells were treated for 24 hours with PPARG inverse agonists prior to analysis of FABP4 (IDT, Cat: Hs.PT 58.20106818) and ANGPTL4 (IDT, Cat: Hs.PT 58.25480012) expression, with expression of the housekeeping gene TBP (IDT, Cat: Hs.PT 58v.39858774) used to normalize expression across samples. Quantitative PCR was performed using an ABI QuantStudio 7 Flex Reaction system. Data were analyzed and reported relative to DMSO control using the comparative Ct method (ΔΔCt).

[3] = molecular target: T2, PPARG/RXRA LBD heterodimer (Homo sapiens, UniProt P37231); test: PPARγ-MED1 blockade assay (TR-FRET); type: binding; details: MED1 LxxLL peptide, 80 nM Rosiglitazone, 3 hours
T2 construct: His-TEV-Q203-Y477; Uniprot ID P37231-2; made in house; host or cells: E. coli
T2 sequence (P37231 203-477 isoform P37231-2): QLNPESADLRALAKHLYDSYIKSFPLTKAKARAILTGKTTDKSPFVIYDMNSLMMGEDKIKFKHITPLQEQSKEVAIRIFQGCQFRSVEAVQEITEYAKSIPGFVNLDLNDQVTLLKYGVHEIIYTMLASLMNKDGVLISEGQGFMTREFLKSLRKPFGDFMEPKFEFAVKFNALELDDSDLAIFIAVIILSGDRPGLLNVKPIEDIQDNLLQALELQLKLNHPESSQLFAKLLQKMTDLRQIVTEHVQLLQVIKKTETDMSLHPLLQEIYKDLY
T2 sequence (P19793 228-462 partner limits assumed): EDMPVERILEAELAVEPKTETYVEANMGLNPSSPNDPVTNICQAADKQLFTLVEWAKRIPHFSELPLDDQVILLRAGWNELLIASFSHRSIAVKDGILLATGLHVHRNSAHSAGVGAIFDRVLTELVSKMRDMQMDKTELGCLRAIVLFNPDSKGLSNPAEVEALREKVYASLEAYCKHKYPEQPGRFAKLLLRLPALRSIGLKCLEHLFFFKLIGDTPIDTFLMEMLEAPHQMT
Procedure: Compound potency (IC50) and maximal extent of MED1 repulsion to PPARG were assessed a TR-FRET binding assay measuring association of a biotinylated MED1 LxxLL peptide (Biotin—[…]-amide) to PPARG/RXRA LBD heterodimer. Specifically, a 20 microliters of TR-FRET master mix consisting of 2 nM WT PPARG LBD (e. coli expressed, His-TEV-Q203-Y477; Uniprot ID P37231-2), 2 nM WT RXRA LBD (e. coli expressed, Flag-TEV-E228-T462; […]. Mixtures were incubated for 3 hours and read in an EnVision plate reader (Perkin Elmer) with Ex/Em 615/665. To determine the potency (IC50) and extent of MED1 repulsion, TR-FRET ratios were normalized to the average ratio of DMSO control wells (0%) and to the average minimum ratio for positive control compound (GW9662 (2-chloro-5-nitrobenzanilide); defined as 100%) in CDD Vault and analyzed using the Levenberg-Marquardt algorithm.

EC50 [1] [nM] | EC50 [3] [nM] | EC50 [2] [nM] | SMILES | inhibition at 0.1 µM [2] [%]
100 to 1000 | 100 to 1000 | 5.2 | CS(=O)(=O)c1ccc(C#N)cc1C(=O)Nc1ccc(C#N)c(Cl)c1 [Example 1, N-(3-chloro-4-cyanophenyl)-5-cyano-2-(methylsulfonyl)benzamide] | 86
1000 to 10000 | 1000 to 10000 |  | CS(=O)(=O)c1ccc(C#N)cc1C(=O)Nc1ccnc(C(F)(F)F)c1 [Example 9, 5-cyano-2-(methylsulfonyl)-N-(2-(trifluorometh-yl)pyridin-4-yl)benzamide] | 64
100 to 1000 | 100 to 1000 |  | N#Cc1ccc(SC(F)(F)F)c(C(=O)Nc2cc(F)cc(Oc3ccc(Cl)cc3)c2)c1 [Example 26, N-(3-(4-chlorophenoxy)-5-fluorophenyl)-5-cyano-2-((trifluorometh-yl)thio)benzamide] | -160
100 to 1000 | 100 to 1000 |  | N#Cc1ccc(SC(F)(F)F)c(C(=O)Nc2cc(F)cc(F)c2)c1 [Example 6, 5-cyano-N-(3,5-difluorophenyl)-2-(trifluorometh-ylsulfanyl)ben-zamide] | 54
> 10000 | > 10000 |  | CS(=O)(=O)c1ccc(C#N)cc1C(=O)Nc1ccc2ccncc2c1 [Example 22, 5-cyano-N-(isoquinolin-7-yl)-2-(methylsulfonyl) benzamide] | 0
10 to 100 | 10 to 100 |  | CS(=O)(=O)c1ccc(C#N)cc1C(=O)Nc1cc(F)c(-c2ccc3c(c2)C(=O)NC3)c(F)c1 [Example 23, 5-cyano-N-(3,5-difluoro-4-(3-oxoisoindolin-5-yl)phenyl)-2-(methylsulfonyl) benzamide] | 19
10 to 100 | 10 to 100 |  | N#Cc1ccc(SC(F)(F)F)c(C(=O)Nc2cc(Cl)cc(Cl)c2)c1 [Example 15, 5-cyano-N-(3,5-dichlorophenyl)-2-((trifluorometh-yl)thio)benzamide] | 46
10 to 100 | 100 to 1000 | 1.3 | CN1Cc2ccc(-c3c(F)cc(NC(=O)c4cc(C#N)ccc4S(C)(=O)=O)cc3F)cc2C1=O [Example 11, 5-cyano-N-(3,5-difluoro-4-(2-methyl-3-oxoisoindolin-5-yl)phenyl)-2-(methylsulfonyl) benzamide] | 79
> 10000 | > 10000 |  | Cc1cc(NC(=O)c2cc(C#N)ccc2S(C)(=O)=O)cc(C)n1 [Example 19, 5-cyano-N-(2,6-dimethylpyridin-4-yl)-2-(methylsulfonyl) benzamide] | 20

Second part, the compound before the results:

SMILES | EC50 [1] [nM] | EC50 [3] [nM] | EC50 [2] [nM] | inhibition at 0.1 µM [2] [%]
Cc1ccc(-c2c(F)cc(NC(=O)c3cc(C#N)ccc3SC(F)(F)F)cc2F)cn1 [Example 3, 5-cyano-N-(3,5-difluoro-4-(6-methylpyridin-3-yl)phenyl)-2-((trifluorometh-yl)thio)benzamide] | 10 to 100 | 100 to 1000 |  | 57
N#Cc1ccc(SC(F)(F)F)c(C(=O)Nc2ccnc(C(F)(F)F)c2)c1 [Example 24, 5-cyano-N-(2-(trifluorometh-yl)pyridin-4-yl)-2-((trifluorometh-yl)thio)benzamide] | 1000 to 10000 | 1000 to 10000 |  | 49
CS(=O)(=O)c1ccc(C#N)cc1C(=O)Nc1cc(F)cc(Oc2ccc(Cl)cc2)c1 [Example 16, N-(3-(4-chlorophenoxy)-5-fluorophenyl)-5-cyano-2-(methylsulfonyl) benzamide] | 10 to 100 | 10 to 100 |  | 
Cc1cc(NC(=O)c2cc(C#N)ccc2S(C)(=O)=O)cnc1C(F)(F)F [Example 30, 5-cyano-N-(5-methyl-6-(trifluorometh-yl)pyridin-3-yl)-2-(methylsulfonyl) benzamide] | 1000 to 10000 | 1000 to 10000 |  | 42
Cc1ccc(-c2c(F)cc(NC(=O)c3cc(C#N)ccc3S(C)(=O)=O)cc2F)cn1 [Example 4, 5-cyano-N-(3,5-difluoro-4-(6-methylpyridin-3-yl)phenyl)-2-(methylsulfonyl) benzamide] | 100 to 1000 | 100 to 1000 |  | 74
CS(=O)(=O)c1cnc(C#N)cc1C(=O)Nc1ccnc(C(F)(F)F)c1 [Example 32, 2-cyano-5-(methylsulfonyl)-N-(2-(trifluoromethyl)py-ridin-4-yl)isonicotinamide] | 100 to 1000 | 100 to 1000 |  | 80
CS(=O)(=O)c1ccc(C#N)cc1C(=O)Nc1ccn2nccc2c1 [Example 20, 5-cyano-2-(methylsulfonyl)-N-(pyrazolo[1,5-a]pyridin-5-yl)benzamide] | > 10000 | > 10000 |  | 0
CS(=O)(=O)c1ccc(C#N)cc1C(=O)Nc1ccc(C#N)c(F)c1 [Example 21, 5-cyano-N-(4-cyano-3-fluorophenyl)-2-(methylsulfonyl) benzamide] | 1000 to 10000 | 1000 to 10000 |  | 79
Cn1cc(-c2c(F)cc(NC(=O)c3cc(C#N)ccc3SC(F)(F)F)cc2F)cn1 [Example 29, 5-cyano-N-(3,5-difluoro-4-(1-methyl-1H-pyrazol-4-yl)phenyl)-2-((trifluorometh-yl)thio)benzamide] | 100 to 1000 | 100 to 1000 |  | 65
CS(=O)(=O)c1ccc(C#N)cc1C(=O)Nc1cc(Cl)cc(Cl)c1 [Example 8, 5-cyano-N-(3,5-dichlorophenyl)-2-(methylsulfonyl) benzamide] | 100 to 1000 | 100 to 1000 |  | 41
CS(=O)(=O)c1ccc(C#N)cc1C(=O)Nc1cc(F)cc(F)c1 [Example 5, 5-cyano-N-(3,5-difluorophenyl)-2-(methylsulfonyl) benzamide] | 100 to 1000 | 1000 to 10000 |  | 40
N#Cc1ccc(S(=O)(=O)CC(F)(F)F)c(C(=O)Nc2cc(F)cc(F)c2)c1 [Example 33, 5-cyano-N-(3,5-difluorophenyl)-2-((2,2,2-trifluoroethyl)sulfonyl)benzamide] | 1000 to 10000 | 1000 to 10000 |  | 19
CN1Cc2ccc(-c3c(F)cc(NC(=O)c4cc(C#N)ccc4SC(F)(F)F)cc3F)cc2C1=O [Example 27, 5-cyano-N-(3,5-difluoro-4-(2-methyl-3-oxoisoindolin-5-yl)phenyl)-2-((trifluorometh-yl)thio)benzamide] | 100 to 1000 | 100 to 1000 |  | 79
CS(=O)(=O)c1cnc(C#N)cc1C(=O)Nc1cc(F)cc(F)c1 [Example 31, 2-cyano-N-(3,5-difluorophenyl)-5-(methylsulfonyl)isonicotinamide] | 10 to 100 | 10 to 100 |  | 72
